Measured values from patent publication US7101878B1 (Agouron Pharmaceuticals, Inc., priority 1998, dated 2006).
Like-named read-outs stand apart in the source and are kept apart here.

Molecular target: T1, human GnRH receptor (Homo sapiens, UniProt P30968)
T1 construct: expressed in transfected cells; host or cells: HEK 293 (hGnRH-R/293, from Dr. Stuart Sealfon)
T1 sequence (P30968 1-328): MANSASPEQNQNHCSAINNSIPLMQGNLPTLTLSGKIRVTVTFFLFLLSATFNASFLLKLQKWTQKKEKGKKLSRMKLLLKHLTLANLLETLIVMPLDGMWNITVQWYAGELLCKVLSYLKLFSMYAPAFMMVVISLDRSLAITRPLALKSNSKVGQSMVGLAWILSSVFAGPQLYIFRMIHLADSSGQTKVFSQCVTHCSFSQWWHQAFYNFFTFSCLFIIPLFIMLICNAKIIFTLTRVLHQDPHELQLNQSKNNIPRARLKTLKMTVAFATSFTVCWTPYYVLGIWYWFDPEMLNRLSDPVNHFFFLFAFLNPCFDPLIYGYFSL
Assay: Radioligand binding, 125I-GnRH-A displacement, membranes of HEK 293 cells with human GnRH receptor
Settings: for IC50: read-out: hGnRH IC50; for remaining activity at 10 µM: read-out: S%R 10 uM hGnRHR; for remaining activity at 1 µM: 1 uM compound, read-out: S%R 1 uM hGnRHR
Method: All compounds were diluted in 1% DMSO (final assay concentration) in binding assay buffer. […] Reactions were terminated by rapid filtration onto 96-well Packard GF/C filters soaked in 0.1% polyethyleneimine. Filters were washed three times with PBS buffer, dried and counted on a Packard Topcount by liquid scintillation counting.
Assay conditions were identical for assessing compound activities at other species. […] IC50 values for control peptides and test compounds were calculated utilizing GraphPad Prism™ software.
Crude compounds were tested using the competitive radioligand binding assay described above.
The reaction mixture was vortexed and incubated for 1 min at room temperature. After one min, the mixture was vortexed and allowed to incubate for an additional minute. 2 ml of 0.5 M acetic acid/1% BSA was added to the reaction tube and the mixture was added to a C18 Sep-Pak cartridge. The cartridge was washed with subsequent washes of 5 ml H2O and 5 ml 0.5M acetic acid and then eluted with 5×1 ml of 60% CH3CN/40% 0.5M acetic acid. The eluate was diluted with 3× volume of HPLC buffer A (0.1% TFA in H2O) and loaded onto a C18 column. The iodinated product was eluted over 20-25 min with a gradient of 25-100% CH3CN containing 0.1% TFA. The radioactive fractions (750 ed/fraction) are collected into clean polypropylene tubes containing 100 μl of 10% BSA. Fractions were assessed for biological activity by radioligand binding.
S%R is the substrate remaining.

[1] = 1 uM, read-out: % Inhib. @ 1 uM hGnRH
[2] = 1 h, repeat of % Inhib. at 1 uM, read-out: Repeats @ 1 uM hGnRH
[3] = 1 h, substrate remaining, 10 uM compound, closer to zero = closer to 100% inhibition
[4] = 1 h, substrate remaining, closer to zero = closer to 100% inhibition
[5] = repeat, read-out: Repeats @ 10 uM hGnRH (% inhib.)
[6] = read-out: % inhib. @ 10 uM hGnRH

Row | SMILES | inhibition at 1 µM [1] [%] | inhibition at 1 µM [2] [%] | further results
1 | CNCCCNC(=O)c1ccc(Cc2cc3c(cc2C)C(C)(C)CCC3(C)C)o1 [drawing 1027] | -22 | -25 | –
2 | COc1cc(OC)c(NC(=O)c2ccc(Cc3cc(C(=O)C(C)(C)C)c(OC)cc3OC)o2)c(OC)c1 [Compound 229] | – | – | IC50: 250 nM
3 | Cc1cc2c(cc1Cc1ccc(C(=O)N3CCN(c4ccc(Cl)c(Cl)c4)CC3)o1)C(C)(C)CCC2(C)C | -20 | -7 | –
4 | Cc1cc2c(cc1Cc1ccc(C(=O)NC(CO)Cc3ccccc3)o1)C(C)(C)CCC2(C)C (centres unmarked) [drawing 1117] | – | – | % Inhib. @ 1 uM hGnRH (1 uM): 72%; Repeats @ 1 uM hGnRH (repeat of % Inhib. at 1 uM): 72
5 | Cc1cc2c(cc1Cc1ccc(C(=O)Nc3ccc(N(C)C)cc3)o1)C(C)(C)CCC2(C)C [Compound 335] | – | – | remaining activity at 10 µM [3]: 2%
6 | Cc1cc2c(cc1Cc1ccc(C(=O)NCc3c(Cl)cccc3Oc3ccccc3)o1)C(C)(C)CCC2(C)C | -10 | -15 | –
7 | Cc1cc2c(cc1Cc1ccc(C(=O)NCc3ccc(F)cc3)o1)C(C)(C)CCC2(C)C [Compound 426] | – | – | remaining activity at 1 µM [4]: 30%
8 | CCCc1nc(NC(=O)c2ccc(Cc3cc4c(cc3C)C(C)(C)CCC4(C)C)o2)ncc1C(=O)OCC [Compound 198] | – | – | insolubility remark in hGnRH IC50 cell (binding assay conditions): Insol. >3 uM; IC50: 780 nM
9 | COc1cc(OC)c(NC(=O)c2ccc(Cc3cc4c(cc3C(C)C)C(C)(C)CCC4(C)C)o2)c(OC)c1 [Compound 171] | – | – | IC50: 1140 nM
10 | COc1cccc(CCNC(=O)c2ccc(Cc3cc4c(cc3C)C(C)(C)CCC4(C)C)o2)c1OC [drawing 1147] | 58 | 63 | –
11 | CCN(CC)S(=O)(=O)c1ccc(OC)c(NC(=O)c2ccc(Cc3cc4c(cc3C)C(C)(C)CCC4(C)C)o2)c1 [Compound 26] | – | – | IC50: 1010 nM
12 | Cc1cc2c(cc1Cc1ccc(C(=O)NN3C(=O)c4ccccc4C3=O)o1)C(C)(C)CCC2(C)C | – | – | inhibition at 10 µM [5]: -20%; inhibition at 10 µM [6]: -15%
13 | Cc1cc2c(cc1Cc1ccc(C(=O)NC3CCN(c4nccc(NCC5CCCO5)n4)C3)o1)C(C)(C)CCC2(C)C (centres unmarked) [drawing 1036] | -12 | 0 | –
14 | Cc1cc2c(cc1Cc1ccc(C(=O)NCCc3cccc(F)c3)o1)C(C)(C)CCC2(C)C [Compound 54] | – | – | IC50: 680 nM
15 | COc1cccc(OC)c1NC(=O)c1ccc(Cc2cc(C(C)C)c(O)cc2C)o1 [Compound 303] | – | – | IC50: 320 nM
16 | COC(=O)N1CCC(C)(C)c2cc(OC)cc(Cc3ccc(C(=O)Nc4c(OC)cc(OC)cc4OC)o3)c21 [Compound 187] | – | – | IC50: 9000 nM
17 | Cc1cccc(CNC(=O)c2ccc(Cc3cc4c(cc3C)C(C)(C)CCC4(C)C)o2)c1 [Compound 434] | – | – | remaining activity at 1 µM [4]: 6%
18 | Cc1cc2c(cc1Cc1ccc(C(=O)NC(c3ccccc3)c3ccccc3)o1)C(C)(C)CCC2(C)C [drawing 1077] | – | – | % Inhib. @ 1 uM hGnRH (1 uM): −7%; Repeats @ 1 uM hGnRH (repeat of % Inhib. at 1 uM): −7
19 | CC(=O)NCCNC(=O)c1ccc(Cc2cc3c(cc2C)C(C)(C)CCC3(C)C)o1 [drawing 991] | 52 | 54 | –
20 | Cc1cc2c(cc1Cc1ccc(C(=O)Nc3ccc4[nH]ccc4c3)o1)C(C)(C)CCC2(C)C [Compound 357] | – | – | S%R 10 uM hGnRHR (substrate remaining, 10 uM compound, closer to zero = closer to 100% inhibition): −2%
21 | Cc1cc2c(cc1Cc1ccc(C(=O)N3C[C@@H]4CCCC[C@@H]4CC3C(=O)NC(C)(C)C)o1)C(C)(C)CCC2(C)C (some centres unmarked) [Compound 38.5] | – | – | IC50: > 10000 nM
22 | Cc1cc2c(cc1Cc1ccc(C(=O)NCC(=O)O)o1)C(C)(C)CCC2(C)C [Compound 162] | – | – | IC50: > 10000 nM

Row | SMILES | inhibition at 1 µM [1] [%] | inhibition at 1 µM [2] [%] | further results
23 | Cc1cc2c(cc1Cc1ccc(C(=O)Nc3ccccc3C)o1)C(C)(C)CCC2(C)C [Compound 362] | – | – | remaining activity at 10 µM [3]: 1%
24 | Cc1cc2c(cc1Cc1ccc(C(=O)NCC3CCN(C(=N)N)CC3)o1)C(C)(C)CCC2(C)C [Compound 35] | – | – | IC50: 1200 nM
25 | CNc1ccccc1NC(=O)c1ccc(Cc2cc3c(cc2C)C(C)(C)CCC3(C)C)o1 [Compound 350] | – | – | remaining activity at 10 µM [3]: 10%
26 | Cc1cc2c(cc1Cc1ccc(C(=O)Nn3c(N)nc(C(F)(F)F)cc3=O)o1)C(C)(C)CCC2(C)C | – | – | inhibition at 10 µM [5]: -5%; inhibition at 10 µM [6]: -10%
27 | Cc1cc2c(cc1Cc1ccc(C(=O)Nc3ccccc3C(=O)N3CCN(C)CC3)o1)C(C)(C)CCC2(C)C [Compound 348] | – | – | remaining activity at 10 µM [3]: 49%
28 | COc1cc(OC)c(NC(=O)c2ccc(Cc3c(C)c(C)c4c(c3C)C=CC(C)(C)O4)o2)c(OC)c1 [Compound 184] | – | – | IC50: 560 nM
29 | Cc1cc2c(cc1Cc1ccc(C(=O)NC(CO)Cc3ccc(Cl)cc3)o1)C(C)(C)CCC2(C)C (centres unmarked) | 16 | 3 | –
30 | Cc1cc2c(cc1Cc1ccc(C(=O)NCCc3ccc(Br)cc3)o1)C(C)(C)CCC2(C)C [drawing 1171] | 16 | 24 | –
31 | Cc1cc2c(cc1Cc1ccc(C(=O)NC(C)(C)Cc3ccc(F)cc3)o1)C(C)(C)CCC2(C)C | 21 | 22 | –
32 | Cc1cc2c(cc1Cc1ccc(C(=O)NCc3cccc(CNc4ncnc5scc(C)c45)c3)o1)C(C)(C)CCC2(C)C [Compound 142] | – | – | IC50: 3000 nM
33 | Cc1cc2c(cc1Cc1ccc(C(=O)NCCCCCN3CCOCC3)o1)C(C)(C)CCC2(C)C | -14 | -5 | –
34 | Cc1cc2c(cc1Cc1ccc(C(=O)N[C@@H](CO)Cc3ccc(O)cc3)o1)C(C)(C)CCC2(C)C | -12 | -9 | –
35 | Cc1cc2c(cc1Cc1ccc(C(=O)N3CCN(c4ccc(Cl)cc4)C(C)C3)o1)C(C)(C)CCC2(C)C (centres unmarked) | -18 | -7 | –
36 | COc1cccc(OC)c1NC(=O)c1ccc(Cc2c(C)c(C)c(C)c(C)c2C)o1 [Compound 204] | – | – | IC50: 1270 nM
37 | Cc1cc2c(cc1Cc1ccc(C(=O)NC(C)c3ccc([N+](=O)[O-])cc3)o1)C(C)(C)CCC2(C)C (centres unmarked) [Compound 455] | – | – | remaining activity at 1 µM [4]: 58%
38 | Cc1cc2c(cc1Cc1ccc(C(=O)NCCc3cccc(C(F)(F)F)c3)o1)C(C)(C)CCC2(C)C [drawing 1020] | 33 | 89 | –
39 | Cc1cc2c(cc1Cc1ccc(C(=O)NCc3ccc(Cl)cc3)o1)C(C)(C)CCC2(C)C [Compound 409] | – | – | remaining activity at 1 µM [4]: 32%
40 | Cc1cc2c(cc1Cc1ccc(C(=O)NCCCNC(=O)c3ccc(Cc4cc5c(cc4C)C(C)(C)CCC5(C)C)o3)o1)C(C)(C)C=CC2(C)C [Compound 27] | – | – | IC50: > 10000 nM
41 | Cc1cc2c(cc1Cc1ccc(C(=O)NC(CO)Cc3ccccc3)o1)C(C)(C)CCC2(C)C (centres unmarked) [Compound 420] | – | – | remaining activity at 1 µM [4]: 28%
42 | Cc1cc2c(cc1Cc1ccc(C(=O)NCCN3CCNC3=O)o1)C(C)(C)CCC2(C)C [drawing 1041] | 32 | 44 | –
43 | Cc1cc2c(cc1Cc1ccc(C(=O)N3CCN(c4ccc(C(F)(F)F)cc4[N+](=O)[O-])CC3)o1)C(C)(C)CCC2(C)C | -20 | -21 | –

More lines, main results first:

Row | inhibition at 1 µM [1] [%] | inhibition at 1 µM [2] [%] | SMILES | further results
44 | 13 | 7 | COc1ccc(CCN(C)C(=O)c2ccc(Cc3cc4c(cc3C)C(C)(C)CCC4(C)C)o2)cc1OC | –
45 | -7 | 4 | Cc1cc2c(cc1Cc1ccc(C(=O)N(C)Cc3ccccc3)o1)C(C)(C)CCC2(C)C | –
46 | 68 | 69 | Cc1cc2c(cc1Cc1ccc(C(=O)NCC(O)c3ccccc3)o1)C(C)(C)CCC2(C)C (centres unmarked) [drawing 1196] | –
47 | -11 | -7 | Cc1cc2c(cc1Cc1ccc(C(=O)N(C)CCc3ccccn3)o1)C(C)(C)CCC2(C)C | –
48 | 15 | 26 | Cc1cc2c(cc1Cc1ccc(C(=O)N[C@H](CO)c3ccccc3)o1)C(C)(C)CCC2(C)C | –
49 | -5 | 6 | Cc1cc2c(cc1Cc1ccc(C(=O)N(CCCO)Cc3ccccc3[N+](=O)[O-])o1)C(C)(C)CCC2(C)C | –
50 | 87 | 90 | Cc1ccc(CNC(=O)c2ccc(Cc3cc4c(cc3C)C(C)(C)CCC4(C)C)o2)cc1 [drawing 1175] | –
51 | 77 | 79 | Cc1ccc(CNC(=O)c2ccc(Cc3cc4c(cc3C)C(C)(C)CCC4(C)C)o2)cc1C [drawing 1191] | –
52 | 81 | 89 | Cc1cc2c(cc1Cc1ccc(C(=O)NCc3ccccc3F)o1)C(C)(C)CCC2(C)C [drawing 1090] | –
53 | 35 | 42 | Cc1cc2c(cc1Cc1ccc(C(=O)NCC3CN(Cc4ccccc4)CCO3)o1)C(C)(C)CCC2(C)C (centres unmarked) [drawing 1049] | –
